Measurements from patent US10100282B2, “Differentiation of pluripotent cells” (FUJIFILM Cellular Dynamics, Inc., priority 2009, dated 2018).

B1: GCSF: granulocyte colony-stimulating factor (protein, UniProt P09919 31-207, looked up)
Granulocyte …: TPLGPASSLPQSFLLKCLEQVRKIQGDGAALQEKLVSECATYKLCHPEELVLLGHSLGIPWAPLSSCPSQALQLAGCLSQLHSGLFLYQGLLQALEGISPELGPTLDTLQLDVADFATTIWQQMEELGMAPALQPTQGAMPAFASAFQRRAGGVLVASHLQSFLEVSYRVLRHLAQP

Test system: hESCs
Assay: Cytokine matrix: serum-free EB hematopoietic differentiation, surface markers by flow cytometry
Format: cell-based, human
Description: Cells were collected from each well/condition and washed once with media. The cell pellet was digested using TrypLE™ or 0.5% trypsin for 5-10 minutes in a 37° C. incubator followed by washes with media and passage through a 70-μm cell strainer. […] Non-viable cells were excluded with 7-aminoactinomycin D (7-AAD, BD Biosciences). Live cell analysis was performed on a FACSCalibur™ or Accuri flow cytometer and Cell Quest software. hESCs adapted to feeder free growth on matrigel maintained using mTESR were preconditioned for three days in the presence of X-vivo-15 containing 0.1 ng/ml TGF-β and 20 ng/ml FGF-2. Cells were harvested using TrypLE for 6 minutes at 37 C. TrypLE™ was neutralized using EB basal media containing 1 μM ROCK inhibitor (H-1152), Soybean trypsin inhibitor (0.25 mg/ml). The cells were washed once in EB basal media containing 1 μM ROCK inhibitor and soybean trypsin inhibitor (0.25 mg/ml). The cells were plated in low attachment plates in EB basal media containing 1 μM ROCK inhibitor and soybean trypsin inhibitor (0.25 mg/ml). The media was changed the next day to EB basal media containing different cytokine formulations. […] The cytokine combinations used are listed below in Table 3. The EB cultures were half fed with fresh differentiation media every two days. The EB cultures were harvested on day 8, 12 and 17 of differentiation. The EB cultures were harvested by spinning down all the cells and digesting the EBs with TrypLE™ or 0.5% trypsin. The phenotype of the progenitor cell types was analyzed by flow cytometry and the cells were plated in methylcellulose media for CFU assays. “FLT3” refers to the Flt3 ligand below.

| Molecule | CD31 expressing cells (DAY 8, factor ABSENT) | CD34 expressing cells (DAY 8, factor ABSENT) | CD43 expressing cells (DAY 8, factor ABSENT) | CD45 expressing cells (DAY 8, factor ABSENT) | FLK-1 expressing cells (DAY 8, factor ABSENT) | CD31 expressing cells (DAY 8, factor PRESENT) | CD34 expressing cells (DAY 8, factor PRESENT) | CD43 expressing cells (DAY 8, factor PRESENT) | CD45 expressing cells (DAY 8, factor PRESENT) | FLK-1 expressing cells (DAY 8, factor PRESENT) | CD31 expressing cells (DAY 12, factor ABSENT) | CD34 expressing cells (DAY 12, factor ABSENT) | CD43 expressing cells (DAY 12, factor ABSENT) | CD45 expressing cells (DAY 12, factor ABSENT) | FLK-1 expressing cells (DAY 12, factor ABSENT) | CD31 expressing cells (DAY 12, factor PRESENT) | CD34 expressing cells (DAY 12, factor PRESENT) | CD43 expressing cells (DAY 12, factor PRESENT) | CD45 expressing cells (DAY 12, factor PRESENT) | FLK-1 expressing cells (DAY 12, factor PRESENT) | other results |
| --- | --- | --- | --- | --- | --- | --- | --- | --- | --- | --- | --- | --- | --- | --- | --- | --- | --- | --- | --- | --- | --- |
| EPO: Erythropoietin | 0.8% | 1.2% | 1.0% | 0.2% | 2.2% | 0.7% | 1.1% | 0.8% | 0.2% | 1.7% | 2.2% | 2.4% | 2.1% | 2.6% | 0.8% | 1.8% | 2.0% | 2.4% | 1.5% | 0.2% | CD31 expressing cells (DAY 17, factor ABSENT): 4.6%; CD34 expressing cells (DAY 17, factor ABSENT): 2.5%; CD43 expressing cells (DAY 17, factor ABSENT): 5.0%; CD45 expressing cells (DAY 17, factor ABSENT): 4.8%; FLK-1 expressing cells (DAY 17, factor ABSENT): 1.6%; CD31 expressing cells (DAY 17, factor PRESENT): 8.8%; CD34 expressing cells (DAY 17, factor PRESENT): 2.4%; CD43 expressing cells (DAY 17, factor PRESENT): 9.1%; CD45 expressing cells (DAY 17, factor PRESENT): 8.9%; FLK-1 expressing cells (DAY 17, factor PRESENT): 2.1% |
| GMCSF: Granulocyte-macrophage colony-stimulating factor | 0.4% | 1.0% | 0.3% | 0.2% | 2.2% | 1.1% | 1.3% | 1.4% | 0.2% | 1.7% | 1.5% | 1.0% | 1.4% | 1.3% | 0.6% | 2.4% | 2.4% | 3.0% | 2.6% | 0.4% | CD31 expressing cells (DAY 17, factor ABSENT): 1.6%; CD34 expressing cells (DAY 17, factor ABSENT): 2.1%; CD43 expressing cells (DAY 17, factor ABSENT): 1.4%; CD45 expressing cells (DAY 17, factor ABSENT): 0.9%; FLK-1 expressing cells (DAY 17, factor ABSENT): 1.4%; CD31 expressing cells (DAY 17, factor PRESENT): 11.3%; CD34 expressing cells (DAY 17, factor PRESENT): 2.8%; CD43 expressing cells (DAY 17, factor PRESENT): 12.1%; CD45 expressing cells (DAY 17, factor PRESENT): 12.3%; FLK-1 expressing cells (DAY 17, factor PRESENT): 2.3%; role during EB differentiation (serum free hematopoietic differentiation, days 8, 12, 17): play a role during later stages of EB differentiation |
| IL6: Interleukin-6, a pro-inflammatory cytokine | 0.8% | 0.9% | 0.8% | 0.2% | 1.2% | 0.8% | 1.4% | 1.0% | 0.2% | 2.6% | 1.4% | 1.7% | 1.2% | 1.5% | 0.5% | 2.5% | 2.6% | 3.2% | 2.4% | 0.5% | CD31 expressing cells (DAY 17, factor ABSENT): 3.8%; CD34 expressing cells (DAY 17, factor ABSENT): 1.8%; CD43 expressing cells (DAY 17, factor ABSENT): 4.1%; CD45 expressing cells (DAY 17, factor ABSENT): 4.1%; FLK-1 expressing cells (DAY 17, factor ABSENT): 1.1%; CD31 expressing cells (DAY 17, factor PRESENT): 9.4%; CD34 expressing cells (DAY 17, factor PRESENT): 3.0%; CD43 expressing cells (DAY 17, factor PRESENT): 9.9%; CD45 expressing cells (DAY 17, factor PRESENT): 9.6%; FLK-1 expressing cells (DAY 17, factor PRESENT): 2.5% |
| SCF: Stem cell factor, a cytokine which binds CD117 (c-Kit) | 0.7% | 0.8% | 0.8% | 0.2% | 1.9% | 0.9% | 1.5% | 1.0% | 0.2% | 2.0% | 1.3% | 1.7% | 1.2% | 1.5% | 0.3% | 2.6% | 2.6% | 3.2% | 2.4% | 0.6% | CD31 expressing cells (DAY 17, factor ABSENT): 3.9%; CD34 expressing cells (DAY 17, factor ABSENT): 2.3%; CD43 expressing cells (DAY 17, factor ABSENT): 4.1%; CD45 expressing cells (DAY 17, factor ABSENT): 4.0%; FLK-1 expressing cells (DAY 17, factor ABSENT): 1.4%; CD31 expressing cells (DAY 17, factor PRESENT): 9.3%; CD34 expressing cells (DAY 17, factor PRESENT): 2.6%; CD43 expressing cells (DAY 17, factor PRESENT): 9.8%; CD45 expressing cells (DAY 17, factor PRESENT): 9.6%; FLK-1 expressing cells (DAY 17, factor PRESENT): 2.2% |
| TPO: Thrombopoietin, a glycoprotein hormone | 0.8% | 1.0% | 1.0% | 0.2% | 1.9% | 0.8% | 1.3% | 0.8% | 0.2% | 1.9% | 2.3% | 2.2% | 2.2% | 2.6% | 0.7% | 1.7% | 2.2% | 2.3% | 1.5% | 0.3% | CD31 expressing cells (DAY 17, factor ABSENT): 4.8%; CD34 expressing cells (DAY 17, factor ABSENT): 2.5%; CD43 expressing cells (DAY 17, factor ABSENT): 4.8%; CD45 expressing cells (DAY 17, factor ABSENT): 4.9%; FLK-1 expressing cells (DAY 17, factor ABSENT): 1.7%; CD31 expressing cells (DAY 17, factor PRESENT): 8.6%; CD34 expressing cells (DAY 17, factor PRESENT): 2.4%; CD43 expressing cells (DAY 17, factor PRESENT): 9.2%; CD45 expressing cells (DAY 17, factor PRESENT): 8.8%; FLK-1 expressing cells (DAY 17, factor PRESENT): 2.0% |
| B1 | 0.8% | 1.2% | 1.0% | 0.2% | 2.2% | 0.7% | 1.1% | 0.8% | 0.2% | 1.7% | 2.2% | 2.4% | 2.3% | 2.6% | 0.7% | 1.8% | 2.0% | 2.3% | 1.5% | 0.4% | CD31 expressing cells (DAY 17, factor ABSENT): 4.8%; CD34 expressing cells (DAY 17, factor ABSENT): 2.7%; CD43 expressing cells (DAY 17, factor ABSENT): 4.9%; CD45 expressing cells (DAY 17, factor ABSENT): 4.9%; FLK-1 expressing cells (DAY 17, factor ABSENT): 1.6%; CD31 expressing cells (DAY 17, factor PRESENT): 8.6%; CD34 expressing cells (DAY 17, factor PRESENT): 2.2%; CD43 expressing cells (DAY 17, factor PRESENT): 9.1%; CD45 expressing cells (DAY 17, factor PRESENT): 8.8%; FLK-1 expressing cells (DAY 17, factor PRESENT): 2.1% |
